Source: article PMC5516794 (Journal of medicinal chemistry, 2017)

Experiments:
[1] = biological target: T1, TMEM16A (Homo sapiens, UniProt Q5XXA6); experiment: Short-circuit current assay in TMEM16A-expressing FRT cells; assay type: cell-based; details: Figure S2A
T1 sequence (Q5XXA6 1-986): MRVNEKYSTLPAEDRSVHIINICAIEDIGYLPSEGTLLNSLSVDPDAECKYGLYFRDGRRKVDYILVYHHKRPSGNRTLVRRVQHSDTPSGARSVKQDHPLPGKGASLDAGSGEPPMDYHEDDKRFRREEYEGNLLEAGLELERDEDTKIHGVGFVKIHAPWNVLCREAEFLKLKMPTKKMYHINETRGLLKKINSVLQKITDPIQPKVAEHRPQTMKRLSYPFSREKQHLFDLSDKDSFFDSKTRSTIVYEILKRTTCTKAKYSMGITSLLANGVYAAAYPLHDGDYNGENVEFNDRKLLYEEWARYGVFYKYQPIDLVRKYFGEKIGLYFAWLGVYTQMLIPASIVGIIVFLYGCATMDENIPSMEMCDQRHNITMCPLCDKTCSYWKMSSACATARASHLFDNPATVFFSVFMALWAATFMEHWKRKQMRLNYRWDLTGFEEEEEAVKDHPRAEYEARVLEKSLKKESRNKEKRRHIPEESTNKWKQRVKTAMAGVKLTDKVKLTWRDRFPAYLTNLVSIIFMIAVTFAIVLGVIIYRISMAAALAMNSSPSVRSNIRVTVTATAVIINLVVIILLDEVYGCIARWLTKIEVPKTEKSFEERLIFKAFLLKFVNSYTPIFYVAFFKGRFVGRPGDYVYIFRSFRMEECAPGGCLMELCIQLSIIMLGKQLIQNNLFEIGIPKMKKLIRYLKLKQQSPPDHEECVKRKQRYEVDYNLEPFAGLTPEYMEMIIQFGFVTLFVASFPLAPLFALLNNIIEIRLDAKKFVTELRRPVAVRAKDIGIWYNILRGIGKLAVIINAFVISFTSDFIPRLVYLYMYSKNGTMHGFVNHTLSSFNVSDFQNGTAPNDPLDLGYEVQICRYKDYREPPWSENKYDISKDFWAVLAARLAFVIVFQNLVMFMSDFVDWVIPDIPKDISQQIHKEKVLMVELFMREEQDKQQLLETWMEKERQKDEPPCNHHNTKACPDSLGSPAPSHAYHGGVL

[2] = biological target: T1, TMEM16A; experiment: Patch clamp, inside-out membrane patches from TMEM16A-expressing FRT cells; assay type: cell-based
[3] = tested on: mouse ileum; experiment: Ex vivo intestinal contractility; details: added to bath, concentration-dependent
[4] = tested on: cytoplasmic calcium; experiment: Fluo-4 fluorescence measurement of ATP-stimulated cytoplasmic calcium elevation; assay type: cell-based; details: 1 μM
[5] = Shelf stability as solid or DMSO stock; assay type: physicochemical; details: as a solid or in DMSO stock solution

For `Cc1ccccc1NC(=O)c1c(NC(=O)C(F)(F)Br)sc2c1CCCCC2` [Compound 10bm], the “ionomycin- and carbachol-activated chloride conductance” value [1] was “inhibited”, the “effect on TMEM16A membrane currents” value ([2]; 250 nM by perfusion, inside-out patch, free Ca2+ 305 nM) was “rapid inhibition of membrane currents” and the “recovery of membrane currents after washout” value ([2]; after 250 nM, washout) was “fully recovered following washout”. For the same compound, the “spontaneous isometric contractions of ileum” value [3] was “strongly inhibited”, the “effect on ATP-stimulated cytoplasmic calcium” value [4] was “not altered” and the long-term shelf stability [5] was over 6 months.
